Measurements as given in patent US20220356170A1, “SREBP INHIBITOR COMPRISING A THIOPHENE CENTRAL RING” (Capulus Therapeutics, LLC, priority 2019, published 2022).
Values after ≈ are worked out from the molar mass of the structure shown.

Columns and labels:
[1] = Half-life in rat liver microsomes; type: in vitro ADME; conditions: read-out: Rat LM: Half life
Method: Half-life Human Microsomes: Compound 1 was evaluated for stability in human liver microsomes. A 10 mM stock solution of Compound 1 was prepared in DMSO and diluted with water: acetonitrile (1:1) to a concentration of 1 mM. A working concentration of 100 μM was prepared by further dilution with water: acetonitrile (1:1). To make the preincubation mixture, 2.5 μL of the diluted Compound 1 was combined with 75 μL of human liver microsomes at 3.33 mg/mL, and 85 μL of 100 mM potassium phosphate buffer, and this mixture pre-incubated for 10 min at 37° C. To make the 60 minute mixture without cofactor, 32.5 μL of the preincubation mixture was combined with 17.5 μL of 100 mM potassium phosphate buffer and incubated for 60 min at 37° C. […] To prepare the sample mixture to be evaluated, 25 μL incubation mixture was combined with 200 μL of acetonitrile containing internal standard and vortexed for 5 min at 1200 rpm, then centrifuged for 10 min at 4000 rpm. […] The sample mixture was evaluated by LC-MS/MS using 10 mM ammonium acetate with 0.1% FA as the aqueous mobile phase, and methanol as the organic mobile phase.
Half-life Rat and Mouse Microsomes: Compound 1 was evaluated in rat and mouse liver microsomes following a similar procedure as described above for human liver microsomes.

HCT15 = assay: Cancer cell growth inhibition, Sulforhodamine B; type: cell-based; conditions: Homo sapiens, HCT-15; HCT15 (colon), 72 hr; Responder Cell Lines
Method: (§1) The ability of select compounds to inhibit cell growth in various cancer cell lines are evaluated. […] The cell lines shown in Table 5 have reduced growth by at least 50% at 10 uM or lower over 72 hr treatment in growth media. The cell lines shown in Table 6 have reduced growth by at least 50% with an IC50 greater than 10 uM.
(§2) Six 10-fold compound dilutions are prepared in DMSO (e.g. 10 mM, 1 mM, 100 uM, 10 uM, 1 uM, and 0.1 uM). Single data points are acquired for each concentration. The final concentration of DMSO is 0.1%. The duration of the treatment is 72 hr. Growth inhibition is measured using Sulforhodamine B in a protein staining assay. Activity of the agents is determined by evaluation the following parameters: IC50, GI50, IC10, TGI, LC50, IC90, and GI90 (where these values can be calculated).

T24 = assay: Cancer cell growth inhibition, Sulforhodamine B; type: cell-based; conditions: Homo sapiens, T-24; T24 (bladder), 72 hr; Non-Responder Cell Lines with IC50 >10 uM or Not Determined
Method: as §1, §2

EFO21 = assay: Cancer cell growth inhibition, Sulforhodamine B; type: cell-based; conditions: Homo sapiens, EFO-21; EFO21 (ovary), 72 hr; Responder Cell Lines
Method: as §1, §2

U87MG = assay: Cancer cell growth inhibition, Sulforhodamine B; type: cell-based; conditions: Homo sapiens, U-87 MG; U87MG (brain), 72 hr; Non-Responder Cell Lines with IC50 >10 uM or Not Determined
Method: as §1, §2

MV4-11 = assay: Cancer cell growth inhibition, Sulforhodamine B; type: cell-based; conditions: Homo sapiens, MV4-11, 72 h, MV4-11 (hematological)
Method: as §1, §2

MHHES1 = assay: Cancer cell growth inhibition, Sulforhodamine B; type: cell-based; conditions: Homo sapiens, MHH-ES-1, 72 h
Method: as §1, §2

SF295 = assay: Cancer cell growth inhibition, Sulforhodamine B; type: cell-based; conditions: Homo sapiens, SF-295, 72 h, SF295 (brain)
Method: as §1, §2

JEG3 = assay: Cancer cell growth inhibition, Sulforhodamine B; type: cell-based; conditions: Homo sapiens, JEG-3; JEG3 (placenta), 72 hr; Responder Cell Lines
Method: as §1, §2

RDES = assay: Cancer cell growth inhibition, Sulforhodamine B; type: cell-based; conditions: RD-ES; RDES (bone), 72 hr; Non-Responder Cell Lines with IC50 >10 uM or Not Determined
Method: as §1, §2

C33A = assay: Cancer cell growth inhibition, Sulforhodamine B; type: cell-based; conditions: Homo sapiens, C-33-A; 72 hr; Responder Cell Lines
Method: as §1, §2

THP-1 = assay: Cancer cell growth inhibition, Sulforhodamine B; type: cell-based; conditions: Homo sapiens, THP-1, 72 h, THP-1 (hematological)
Method: as §1, §2

U2OS = assay: Cancer cell growth inhibition, Sulforhodamine B; type: cell-based; conditions: Homo sapiens; U2OS (bone), 72 hr; Non-Responder Cell Lines with IC50 >10 uM or Not Determined
Method: as §1, §2

L-363 = assay: Cancer cell growth inhibition, Sulforhodamine B; type: cell-based; conditions: Homo sapiens; L-363 (hematological), 72 hr; Responder Cell Lines
Method: as §1, §2

TE671 = assay: Cancer cell growth inhibition, Sulforhodamine B; type: cell-based; conditions: Homo sapiens, TE-671, 72 h, TE671 (muscle)
Method: as §1, §2

Kinetic solubility = type: physicochemical; conditions: aqueous buffer, kinetic from dmso stock, pH 7.4 buffer, room temperature, 1.0% DMSO
Method: Kinetic Solubility Procedure: A 10 mM stock solution of Compound 1 was prepared in DMSO, then 4 μL of the stock was added to a deep well plate containing 396 μL of pH 7.4 buffer. The sample plate was vortexed at 800 rpm for 24 h on thermomixer at room temperature. The plate was sealed well during the incubation process. The DMSO content in the sample was 1.0%. The concentration of Compound 1 in the final incubation was 100 μM. At the end of the incubation period, the sample plate was centrifuged at 4000 rpm for 10 min and analyzed in LC-UV against a calibration curve (CC).

[2] = Non-Responder Cell Lines with IC50 >10 uM or Not Determined

half-life at 1 µM [1]: 1.68 h | IC50 (HCT15): < 10 µM | IC50 (T24): > 10 µM | IC50 (EFO21): < 10 µM | IC50 (U87MG): > 10 µM | IC50 (MV4-11; [2]): > 10 µM | IC50 (MV4-11; Responder Cell Lines): < 10 µM | IC50 (MHHES1; MHHES1 (bone), Non-Responder Cell Lines with IC50 >10 uM or Not Determined): > 10 µM | IC50 (MHHES1; MHHESI (bone), Responder Cell Lines): < 10 µM | IC50 (SF295; [2]): > 10 µM | IC50 (SF295; Responder Cell Lines): < 10 µM | IC50 (JEG3): < 10 µM | IC50 (RDES): > 10 µM | IC50 (C33A): < 10 µM | IC50 (THP-1; [2]): > 10 µM | IC50 (THP-1; Responder Cell Lines): < 10 µM | IC50 (U2OS): > 10 µM | IC50 (L-363): < 10 µM | IC50 (TE671; [2]): > 10 µM | IC50 (TE671; Responder Cell Lines): < 10 µM | solubility kinetic at 24 h (Kinetic solubility): 37 µM (≈ 16.9 µg/mL)
Structure (SMILES): CC(C)(O)c1cc(-c2csc(-c3ccc(C(=O)N4CCC(O)CC4)cc3Cl)c2)ccn1 [Compound 1, (3-chloro-4-(4-(2-(2-hydroxypropan-2-yl)pyridin-4-yl)thiophen-2-yl)phenyl)(4-hydroxypiperidin-1-yl)methanone]
